One assay addresses rα9α10 nAChR (Rattus norvegicus, UniProt P43144+Q9JLB5). Put plainly: cell-based. Format: cell-based.
The next assay addresses rα6/α3β2β3 nAChR (Rattus norvegicus, UniProt P04757+P12390+P12391+P43143). As to the kind of experiment: cell-based.
The next assay concerns the target rα6/α3β4 nAChR (Rattus norvegicus, UniProt P04757+P12392+P43143). As to the kind of experiment: cell-based. The note with it: 20–25 °C.
The target of a further assay is hα9α10 nAChR (Homo sapiens, UniProt Q9GZZ6+Q9UGM1). Put plainly: cell-based.
Another assay addresses rα4β2 nAChR (Rattus norvegicus, UniProt P09483+P12390). Put plainly: cell-based. In kind it is cell-based.
Another assay concerns the target rα3β2 nAChR (Rattus norvegicus, UniProt P04757+P12390). As to the kind of experiment: cell-based. The note with it: 20–25 °C.
The target in the next assay is rα7 nAChR (Rattus norvegicus, UniProt Q05941). In kind it is cell-based. As to conditions: at 20 μM.
Another assay has as its target rα3β4 nAChR (Rattus norvegicus, UniProt P04757+P12392). Put plainly: cell-based. Format: cell-based.

Positions of bridges follow the written chain, without caps; N, C: chain ends. Residues, ends and D or L forms follow the SMILES beside them. Some results are limits rather than exact numbers.

Chain of hα9α10 nAChR (Q9UGM1 26-479 limits assumed): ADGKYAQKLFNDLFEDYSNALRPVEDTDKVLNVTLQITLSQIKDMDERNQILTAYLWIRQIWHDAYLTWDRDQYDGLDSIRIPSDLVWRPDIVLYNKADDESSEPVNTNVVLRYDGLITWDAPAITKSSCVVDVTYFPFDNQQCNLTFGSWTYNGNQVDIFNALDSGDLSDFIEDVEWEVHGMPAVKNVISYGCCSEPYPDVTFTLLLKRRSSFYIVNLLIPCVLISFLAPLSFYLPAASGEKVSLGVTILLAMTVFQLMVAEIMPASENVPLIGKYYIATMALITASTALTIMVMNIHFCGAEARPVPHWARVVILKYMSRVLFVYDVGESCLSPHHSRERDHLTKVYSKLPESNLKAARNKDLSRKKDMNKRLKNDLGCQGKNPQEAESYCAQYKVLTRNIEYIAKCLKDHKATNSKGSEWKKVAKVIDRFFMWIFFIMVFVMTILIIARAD
Chain of hα9α10 nAChR (Q9GZZ6 25-450 limits assumed): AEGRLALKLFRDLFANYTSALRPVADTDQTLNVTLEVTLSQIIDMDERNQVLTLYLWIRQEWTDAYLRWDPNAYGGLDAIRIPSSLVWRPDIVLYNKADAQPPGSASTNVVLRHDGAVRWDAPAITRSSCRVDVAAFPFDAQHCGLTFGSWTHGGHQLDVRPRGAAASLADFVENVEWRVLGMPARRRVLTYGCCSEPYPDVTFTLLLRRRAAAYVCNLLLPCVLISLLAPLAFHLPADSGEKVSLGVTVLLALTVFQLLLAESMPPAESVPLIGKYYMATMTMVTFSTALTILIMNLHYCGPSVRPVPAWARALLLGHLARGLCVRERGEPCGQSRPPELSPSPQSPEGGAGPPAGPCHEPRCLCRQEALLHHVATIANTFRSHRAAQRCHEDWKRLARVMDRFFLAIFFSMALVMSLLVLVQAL
Chain of rα3β4 nAChR (P04757 26-499 limits assumed): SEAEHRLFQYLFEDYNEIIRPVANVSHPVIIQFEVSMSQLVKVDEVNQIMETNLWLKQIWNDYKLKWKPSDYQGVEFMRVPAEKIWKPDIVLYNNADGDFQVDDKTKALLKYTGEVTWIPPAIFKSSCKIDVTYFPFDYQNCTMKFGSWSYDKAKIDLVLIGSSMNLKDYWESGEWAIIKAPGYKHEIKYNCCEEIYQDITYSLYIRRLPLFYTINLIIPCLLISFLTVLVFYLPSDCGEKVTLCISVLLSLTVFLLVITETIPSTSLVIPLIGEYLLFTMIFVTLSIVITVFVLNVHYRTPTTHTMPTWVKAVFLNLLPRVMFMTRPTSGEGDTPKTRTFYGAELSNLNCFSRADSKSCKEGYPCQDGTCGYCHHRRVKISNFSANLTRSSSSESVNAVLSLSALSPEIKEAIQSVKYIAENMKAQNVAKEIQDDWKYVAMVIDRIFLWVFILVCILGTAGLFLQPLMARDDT
Chain of rα3β4 nAChR (P12392 21-495 limits assumed): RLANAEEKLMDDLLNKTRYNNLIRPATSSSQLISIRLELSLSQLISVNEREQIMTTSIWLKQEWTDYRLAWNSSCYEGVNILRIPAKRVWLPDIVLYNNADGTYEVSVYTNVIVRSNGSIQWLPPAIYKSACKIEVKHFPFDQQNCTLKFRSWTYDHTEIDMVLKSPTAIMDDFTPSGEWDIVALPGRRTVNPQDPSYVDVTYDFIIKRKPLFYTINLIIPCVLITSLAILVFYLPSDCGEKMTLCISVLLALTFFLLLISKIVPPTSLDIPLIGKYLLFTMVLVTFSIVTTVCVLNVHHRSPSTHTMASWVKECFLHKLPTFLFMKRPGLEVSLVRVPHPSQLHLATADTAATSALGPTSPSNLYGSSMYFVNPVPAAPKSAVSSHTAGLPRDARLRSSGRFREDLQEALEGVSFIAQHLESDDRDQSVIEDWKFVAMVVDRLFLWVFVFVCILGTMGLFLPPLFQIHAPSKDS
Chain of rα6/α3β2β3 nAChR (P04757 whole entry, looked up): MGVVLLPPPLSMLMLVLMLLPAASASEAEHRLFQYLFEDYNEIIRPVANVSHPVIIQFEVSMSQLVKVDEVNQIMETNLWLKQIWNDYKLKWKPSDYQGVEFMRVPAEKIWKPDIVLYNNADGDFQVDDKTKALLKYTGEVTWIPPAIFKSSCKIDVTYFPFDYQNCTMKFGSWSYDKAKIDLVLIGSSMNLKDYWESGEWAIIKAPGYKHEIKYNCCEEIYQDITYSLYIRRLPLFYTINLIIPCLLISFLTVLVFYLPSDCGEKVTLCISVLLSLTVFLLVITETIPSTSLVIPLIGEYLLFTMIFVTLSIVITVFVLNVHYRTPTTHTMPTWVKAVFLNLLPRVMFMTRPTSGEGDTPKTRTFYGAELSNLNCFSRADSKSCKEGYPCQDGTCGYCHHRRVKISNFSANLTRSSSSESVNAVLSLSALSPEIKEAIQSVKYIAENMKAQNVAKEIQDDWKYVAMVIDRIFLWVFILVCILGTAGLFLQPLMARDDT
Chain of rα6/α3β2β3 nAChR (P12390 whole entry, looked up): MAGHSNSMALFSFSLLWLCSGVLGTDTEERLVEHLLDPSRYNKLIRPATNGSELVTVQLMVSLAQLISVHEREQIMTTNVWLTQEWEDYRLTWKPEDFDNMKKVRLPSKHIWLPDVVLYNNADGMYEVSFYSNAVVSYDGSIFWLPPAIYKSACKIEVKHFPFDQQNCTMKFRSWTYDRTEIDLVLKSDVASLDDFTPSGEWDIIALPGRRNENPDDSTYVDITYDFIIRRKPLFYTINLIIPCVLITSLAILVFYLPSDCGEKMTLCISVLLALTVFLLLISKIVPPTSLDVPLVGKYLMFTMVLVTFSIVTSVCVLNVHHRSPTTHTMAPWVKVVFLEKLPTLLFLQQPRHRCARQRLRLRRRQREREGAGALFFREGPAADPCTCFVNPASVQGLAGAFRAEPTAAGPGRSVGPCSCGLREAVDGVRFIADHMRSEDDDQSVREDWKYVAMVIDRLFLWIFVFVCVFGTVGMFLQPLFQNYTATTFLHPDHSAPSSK
Chain of rα6/α3β2β3 nAChR (P12391 whole entry, looked up): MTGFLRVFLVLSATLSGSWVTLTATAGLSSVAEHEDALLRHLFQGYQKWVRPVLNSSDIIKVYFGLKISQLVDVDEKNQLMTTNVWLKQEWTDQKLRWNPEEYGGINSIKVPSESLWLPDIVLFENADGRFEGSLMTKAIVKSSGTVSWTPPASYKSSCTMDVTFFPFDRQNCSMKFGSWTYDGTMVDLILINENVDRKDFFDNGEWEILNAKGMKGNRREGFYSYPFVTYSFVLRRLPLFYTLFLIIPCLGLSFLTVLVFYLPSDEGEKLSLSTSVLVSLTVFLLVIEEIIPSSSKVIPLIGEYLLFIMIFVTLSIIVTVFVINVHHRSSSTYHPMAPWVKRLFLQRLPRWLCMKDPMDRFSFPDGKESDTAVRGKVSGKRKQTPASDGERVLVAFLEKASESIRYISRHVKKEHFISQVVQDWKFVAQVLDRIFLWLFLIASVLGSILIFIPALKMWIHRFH
Chain of rα6/α3β2β3 nAChR (P43143 whole entry, looked up): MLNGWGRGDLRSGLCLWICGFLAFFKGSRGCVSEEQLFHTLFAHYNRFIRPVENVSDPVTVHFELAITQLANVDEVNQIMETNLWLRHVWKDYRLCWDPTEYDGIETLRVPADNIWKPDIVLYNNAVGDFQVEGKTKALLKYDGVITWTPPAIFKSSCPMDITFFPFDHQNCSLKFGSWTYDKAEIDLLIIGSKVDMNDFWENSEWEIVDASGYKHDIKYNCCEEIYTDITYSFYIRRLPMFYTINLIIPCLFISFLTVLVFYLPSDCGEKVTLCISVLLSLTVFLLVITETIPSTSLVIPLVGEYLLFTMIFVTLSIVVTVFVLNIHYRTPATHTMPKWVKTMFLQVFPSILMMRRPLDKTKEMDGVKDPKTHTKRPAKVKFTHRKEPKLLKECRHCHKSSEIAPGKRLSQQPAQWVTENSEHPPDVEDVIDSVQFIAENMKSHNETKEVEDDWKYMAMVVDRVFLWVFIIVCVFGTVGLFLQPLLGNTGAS
Chain of rα9α10 nAChR (P43144 26-479 limits assumed): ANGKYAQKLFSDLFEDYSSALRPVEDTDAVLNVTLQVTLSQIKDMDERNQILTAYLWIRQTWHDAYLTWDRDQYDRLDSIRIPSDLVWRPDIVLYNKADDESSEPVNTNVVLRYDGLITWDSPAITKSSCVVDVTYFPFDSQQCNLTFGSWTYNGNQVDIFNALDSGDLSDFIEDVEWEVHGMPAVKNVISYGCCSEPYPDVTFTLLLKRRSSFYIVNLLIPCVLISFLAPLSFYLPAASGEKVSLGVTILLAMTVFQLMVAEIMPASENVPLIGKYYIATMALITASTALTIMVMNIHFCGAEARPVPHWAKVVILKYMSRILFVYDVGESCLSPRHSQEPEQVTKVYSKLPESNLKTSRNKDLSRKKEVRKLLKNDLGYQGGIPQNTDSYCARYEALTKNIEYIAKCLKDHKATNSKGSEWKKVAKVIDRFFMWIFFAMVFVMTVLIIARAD
Chain of rα9α10 nAChR (Q9JLB5 25-447 limits assumed): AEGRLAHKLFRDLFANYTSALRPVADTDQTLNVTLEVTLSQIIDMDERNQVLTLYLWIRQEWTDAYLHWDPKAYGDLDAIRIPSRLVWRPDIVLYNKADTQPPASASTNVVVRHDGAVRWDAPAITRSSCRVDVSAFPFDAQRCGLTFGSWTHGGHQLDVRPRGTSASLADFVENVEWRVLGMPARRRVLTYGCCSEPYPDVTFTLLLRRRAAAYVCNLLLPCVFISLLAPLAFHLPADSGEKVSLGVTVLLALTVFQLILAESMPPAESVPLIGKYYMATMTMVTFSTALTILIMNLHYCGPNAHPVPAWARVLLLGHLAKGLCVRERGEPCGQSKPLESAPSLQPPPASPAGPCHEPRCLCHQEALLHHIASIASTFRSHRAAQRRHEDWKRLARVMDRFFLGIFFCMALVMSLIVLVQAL

Usually IC50 stands for the midpoint of a concentration-inhibition curve. The low end stands for higher potency, the high end for lower potency. Take `CC[C@H](C)[C@@H]1NC(=O)[C@H](CCC(=O)O)NC(=O)[C@@H]2CCCN2C(=O)[C@H](Cc2c[nH]cn2)NC(=O)[C@H]([C@@H](C)O)NC(=O)[C@H](CCC(N)=O)NC(=O)[C@H](C)NC(=O)[C@@H]2CSSC[C@H](NC(=O)[C@H](CCC(=O)O)NC(=O)[C@@H](N)CC(=O)O)C(=O)N[C@@H](CSSC[C@@H](C(N)=O)NC1=O)C(=O)N[C@@H](CO)C(=O)N[C@@H](CC(N)=O)C(=O)N1CCC[C@H]1C(=O)N[C@@H](CO)C(=O)N2` [QuIA] (H-DECCSNPSCAQTHPEIC-NH2; disulfide 3-9, 4-17): the IC50 against rα9α10 nAChR was greater than 10 µM; on rα6/α3β2β3 nAChR, greater than 10 µM; against rα6/α3β4 nAChR, 0.0907 µM; at hα9α10 nAChR it was greater than 10 µM; against rα4β2 nAChR, greater than 10 µM; at rα3β2 nAChR, 0.0557 µM. At rα3β4 nAChR, this molecule showed an IC50 greater than 10 µM. In addition, the “blocking of ACh-induced current” value is recorded as “^a Values in parentheses are a 95% confidence interval (C.I.). ^b Less than 50% blocking at 10 µM. All receptors are of rat (r) or human (h) origin, except α1β1δε, which is of mouse (m) origin. ND, not determined” at rα9α10 nAChR (at 10 µM); “^a Values in parentheses are a 95% confidence interval (C.I.). ^b Less than 50% blocking at 10 µM. All receptors are of rat (r) or human (h) origin, except α1β1δε, which is of mouse (m) origin. ND, not determined” at rα6/α3β2β3 nAChR (at 10 µM); “^a Values in parentheses are a 95% confidence interval (C.I.). ^b Less than 50% blocking at 10 µM. All receptors are of rat (r) or human (h) origin, except α1β1δε, which is of mouse (m) origin. ND, not determined” at hα9α10 nAChR (at 10 µM); “^a Values in parentheses are a 95% confidence interval (C.I.). ^b Less than 50% blocking at 10 µM. All receptors are of rat (r) or human (h) origin, except α1β1δε, which is of mouse (m) origin. ND, not determined” on rα4β2 nAChR (at 10 µM); “less than 50%” on rα7 nAChR; “^a Values in parentheses are a 95% confidence interval (C.I.). ^b Less than 50% blocking at 10 µM. All receptors are of rat (r) or human (h) origin, except α1β1δε, which is of mouse (m) origin. ND, not determined” at rα3β4 nAChR (at 10 µM).

These data come from paper PMC8878501 (Marine Drugs, 2022).
